In ChEMBL document CHEMBL1201862, “PubChem BioAssay data set” (2004):
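1) Cells in 96-well plates. 2) Compound, 48 h, 5 concentrations. 3) Linear interpolation between surrounding doses. 4) Unreached endpoint = highest concentration. GI50 = concentration required for 50% inhibition of growth.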 Activity calls are given as the source filed them. Cut-off read from the data, not from the text of the source: active = GI50 up to about 1.1 µM and inactive = higher.

Experiments:
Experiment in all cases: inhibition of tumour cell growth, NCI panel, 48 h
786-0 = tested on: 786-0
A498 = tested on: A498
A549 = tested on: A549
ACHN = tested on: ACHN
CAKI-1 = tested on: CAKI-1
CCRF-CEM = tested on: CCRF-CEM
COLO 205 = tested on: COLO 205
DLD-1 = tested on: DLD-1
DMS-114 = tested on: DMS-114
DMS-273 = tested on: DMS-273
EKVX = tested on: EKVX
HCC 2998 = tested on: HCC 2998
HCT-116 = tested on: HCT-116
HCT-15 = tested on: HCT-15
HL-60 = tested on: HL-60
HOP-18 = tested on: HOP-18
HOP-62 = tested on: HOP-62
HOP-92 = tested on: HOP-92
HT-29 = tested on: HT-29
IGROV-1 = tested on: IGROV-1
K562 = tested on: K562
KM-20L2 = tested on: KM-20L2
KM12 = tested on: KM12
LOX IMVI = tested on: LOX IMVI
LXFL 529 = tested on: LXFL 529
M14 = tested on: M14
M19-MEL = tested on: M19-MEL
MOLT-4 = tested on: MOLT-4
Malme-3M = tested on: Malme-3M
NCI-H226 = tested on: NCI-H226
NCI-H23 = tested on: NCI-H23
NCI-H460 = tested on: NCI-H460
NCI-H522 = tested on: NCI-H522
OVCAR-3 = tested on: OVCAR-3
OVCAR-4 = tested on: OVCAR-4
OVCAR-5 = tested on: OVCAR-5
OVCAR-8 = tested on: OVCAR-8
RPMI-8226 = tested on: RPMI-8226
RXF 393 = tested on: RXF 393
RXF 631 = tested on: RXF 631
SF-268 = tested on: SF-268
SF-295 = tested on: SF-295
SF-539 = tested on: SF-539
SK-MEL-28 = tested on: SK-MEL-28
SK-MEL-2 = tested on: SK-MEL-2
SK-MEL-5 = tested on: SK-MEL-5
SK-OV-3 = tested on: SK-OV-3
SN12C = tested on: SN12C
SNB-19 = tested on: SNB-19
SNB-75 = tested on: SNB-75
SNB-78 = tested on: SNB-78
SR = tested on: SR
SW-620 = tested on: SW-620
TK-10 = tested on: TK-10
U-251 = tested on: U-251
UACC-257 = tested on: UACC-257
UACC-62 = tested on: UACC-62
UO-31 = tested on: UO-31
XF498 = tested on: XF498

Measured: GI50

O=C(CN1CCN(c2ccccc2)CC1)N1CCc2c([nH]c3ccccc23)C1c1cccnc1 (centres undefined)
inactive: 786-0 15.3 µM | A498 > 100 µM | A549 31.6 µM | ACHN 51.8 µM | CAKI-1 25.3 µM | CCRF-CEM > 100 µM | COLO 205 > 100 µM | DLD-1 > 53 µM | DMS-114 26.9 µM | DMS-273 49 µM | EKVX > 100 µM | HCC 2998 > 87.9 µM | HCT-116 14.5 µM | HL-60 30.9 µM | HOP-18 > 100 µM | HOP-62 34.1 µM | HOP-92 20.2 µM | HT-29 > 53.5 µM | IGROV-1 > 100 µM | K562 > 76.4 µM | KM-20L2 > 100 µM | KM12 97.3 µM | LOX IMVI > 73.1 µM | LXFL 529 71.9 µM | M14 54.2 µM | M19-MEL > 95.9 µM | MOLT-4 > 100 µM | Malme-3M > 100 µM | NCI-H226 > 100 µM | NCI-H23 30.5 µM | NCI-H460 36.9 µM | NCI-H522 29.3 µM | OVCAR-3 64.9 µM | OVCAR-4 > 29.4 µM | OVCAR-5 > 100 µM | OVCAR-8 24.4 µM | RPMI-8226 > 100 µM | RXF 393 9.68 µM | RXF 631 33.3 µM | SF-268 39.1 µM | SF-295 23.7 µM | SF-539 16.7 µM | SK-MEL-28 > 95.3 µM | SK-MEL-2 > 100 µM | SK-MEL-5 51.3 µM | SK-OV-3 25.8 µM | SN12C > 82.6 µM | SNB-19 38.2 µM | SNB-75 6.92 µM | SNB-78 13.5 µM | SR > 100 µM | SW-620 > 66.8 µM | TK-10 > 29.4 µM | U-251 14.3 µM | UACC-257 > 100 µM | UACC-62 88.7 µM | UO-31 > 58.3 µM | XF498 24.1 µM
57.3 µM: HCT-15

CCOP(=O)(OCC)C1CCCOC1=O (centres undefined)
inactive: 786-0 > 100 µM | A498 > 100 µM | A549 > 100 µM | ACHN > 100 µM | CAKI-1 > 100 µM | CCRF-CEM > 100 µM | COLO 205 > 100 µM | DLD-1 > 100 µM | DMS-114 > 100 µM | DMS-273 > 100 µM | EKVX > 100 µM | HCC 2998 > 100 µM | HCT-116 > 100 µM | HL-60 > 100 µM | HOP-18 > 100 µM | HOP-62 > 100 µM | HT-29 > 100 µM | IGROV-1 > 100 µM | K562 > 100 µM | KM-20L2 > 100 µM | KM12 > 100 µM | LOX IMVI > 100 µM | LXFL 529 > 100 µM | M14 > 100 µM | M19-MEL > 100 µM | MOLT-4 > 100 µM | Malme-3M > 100 µM | NCI-H23 > 100 µM | NCI-H460 > 100 µM | OVCAR-3 > 100 µM | OVCAR-4 > 100 µM | OVCAR-5 > 100 µM | OVCAR-8 > 100 µM | RPMI-8226 > 100 µM | RXF 393 > 100 µM | RXF 631 > 100 µM | SF-268 > 100 µM | SF-295 > 100 µM | SF-539 > 100 µM | SK-MEL-28 > 100 µM | SK-MEL-2 > 100 µM | SK-MEL-5 > 100 µM | SK-OV-3 > 100 µM | SN12C > 100 µM | SNB-19 > 100 µM | SNB-75 > 100 µM | SNB-78 > 100 µM | SW-620 > 100 µM | TK-10 > 100 µM | U-251 > 100 µM | UACC-257 > 100 µM | UACC-62 > 100 µM | UO-31 > 100 µM | XF498 > 100 µM
> 100 µM: HCT-15
